Measurements taken from article PMC6017909, “Synthesis and Evaluation of the Tumor Cell Growth Inhibitory Potential of New Putative HSP90 Inhibitors” (Molecules : A Journal of Synthetic Chemistry and Natural …, 2018).

Tests used:
NCI-H460 [1] = test: Cell-counting assay, 72-h drug exposure; type: cell-based; conditions: Homo sapiens, read-out: Cell Growth Inhibitory Activity NCI-H460 IC50 72 h
Text: For the cytotoxic activity studies and determination of GI50 concentrations in three different tumor cell lines, the cell culture conditions are described in Section 3.5. For the studies on the effect on % viable cells, cell cycle, cellular proliferation, and apoptosis, culture conditions are described in Section 3.6.1. For the remaining studies, the epithelial carcinoma cell line A431 and the non-small cell lung carcinoma cell line NCI-H460 were routinely grown in RPMI 1640 (Lonza, Vierviers, Belgium), supplemented with 10% (v/v) heat-inactivated fetal bovine serum (FBS, GIBCO, Invitrogen, Paisley, UK). The human peritoneal mesothelioma cell line STO was kindly provided by Dr. N. Zaffaroni (IRCCS Istituto Nazionale Tumori, Milan, Italy) and grown in 50/50 DMEM-Ham’s F12 medium (Lonza, Vierviers, Belgium), supplemented with 10% (v/v) heat-inactivated foetal bovine serum and 2 mM L-glutamine (L-Gln). All cell lines were maintained at 37 °C in a 5%/95% CO2/air atmosphere. All the compounds tested were freshly prepared by dissolving powder in dimethylsulfoxide (DMSO) (BDH Prolabo, Milan, Italy) and following dilution in culture medium. Cells were incubated with drugs for 48 h or 72 h (unless otherwise stated) at 37 °C in culture medium supplemented with 10% (v/v) heat-inactivated FBS; drug concentrations used for each assay and duration of treatments are reported in Legends to Figures.
Cellular sensitivity to drugs was evaluated by a cell-counting assay after 72-h drug exposure. Cells in the logarithmic phase of growth were seeded in duplicate into 6-well plates. Twenty-four hours after seeding, the drug was added to the medium. Cells were harvested 72 h after drug exposure and counted with a cell counter.

NCI-H460 [2] = test: Apoptosis, Annexin V-FITC/PI flow cytometry; type: cell-based, human; conditions: for % Apoptosis: 48 h, sum of early and late apoptosis; for Induction of apoptosis at cytotoxic concentrations: GI50 and 1.5× GI50, 48 h, Annexin V and propidium iodide
Protocol: NCI-H460 cells were plated in 6-well plates (1 × 10^5 cells/well) in RPMI-1640 medium with UltraGlutamine I and 25 mM Hepes (Lonza) supplemented with 10% FBS (PAA) at 37 °C in a humidified incubator with 5% CO2 for 24 h. […] These concentrations corresponded respectively to 5.2 μM and 7.8 μM for compound 5 and to 3.2 μM and 4.8 μM for compound 8. Cells were also incubated with medium only (Blank) or with the vehicle (solvent, H2O), corresponding to the highest concentration used when testing the compounds. Following treatment with the compounds, cells were further processed as follows. Following 48 h treatment, the levels of apoptosis were assessed using the “Human AnnexinV-FITC/PI apoptosis” kit (Bender MedSystems, Wien, Austria) as previously described. Briefly, cell pellets were resuspended in binding buffer and further incubated with Annexin V-FITC and with propidium iodide. Samples were analyzed in a FACSCalibur flow cytometer (BD Biosciences, Erembodegem, Belgium), plotting at least 15,000 events and using the FlowJo 7.6.5 software (Tree Star, Inc., Ashland, OR, USA).

[3] = tested on: A431 squamous cell carcinoma xenografts; test: Tumor growth of xenografted mouse model; type: in vivo, nude mice
Protocol: Experiments were carried out using female athymic Swiss nude mice, 8–10 weeks old (Charles River, Calco, Italy). Mice were maintained in laminar flow rooms keeping temperature and humidity constant. Mice had free access to food and water. Experiments were approved by the Ethics Committee for Animal Experimentation of the Istituto Nazionale Tumori of Milan according to institutional guidelines. Epidermoid carcinoma cells, A-431 suspended in culture media were subcutaneously injected on the back of mice. When tumors were just palpable, the mice were randomly divided into two groups: control and compound-treated. Each group was constituted by 8 mice. Saline (0.9% NaCl) or compound solution (5 or 10 mg/kg, respectively) was i.p. administered daily during 3 weeks, to both groups. Tumor volume was assessed using calipers and determined according to the formula (d)^2xD/2.

HSP90 = target: T1, HSP90 (Homo sapiens, UniProt P07900); test: HSP90 binding, fluorescence polarization with GM-FITC; conditions: displacement of GM-FITC 5 nM, 30 nM HSP90, 4 °C, 4 h; read-out: Binding HSP90 (FP) IC50
T1 construct: purchased Stressgen SPP-776
Protocol: GM-FITC Geldanamycin-fluorescein-5-isothiocyanate (working concentration: 1–400 nM), supplied by Invivogen (06C23-MT, San Diego, CA, USA), was previously dissolved in DMSO to obtain 10 mM stock solutions and kept at −20 °C until use. […] The compounds were previously dissolved in DMSO to obtain stock solutions and kept at −20 °C. The day of experiment, the compounds were prepared by serial dilutions in assay buffer (HFB) containing 20 mM HEPES (K) pH 7.3, 50 mM KCl, 5 mM MgCl2, 20 mM Na2MoO4 and 0.01% NP40. Before each use, 0.1 mg/mL Bovine Gamma globulin and 2 mM DTT were freshly added. […] The plate was mixed on a shaker at 4 °C for 4 h, and the FP values in mP (millipolarization units) were recorded. […] Curve fitting was performed using Prism GraphPad software program (GraphPad software, Inc., San Diego, CA, USA).

Structure (SMILES) | IC50 (NCI-H460 [1]) [µM] | % Apoptosis (NCI-H460 [2]; 5.2 μM, Blank 7.0 ± 0.6) [%] | % Apoptosis (NCI-H460 [2]; 7.8 μM, Blank 7.0 ± 0.6) [%] | Induction of apoptosis at cytotoxic concentrations (NCI-H460 [2]) | Inhibition of tumor growth vs control group ([3]; 5 mg/kg i.p. daily for three weeks) | Inhibition of tumor growth vs control group ([3]; 10 mg/kg i.p. daily for three weeks) | Manifestations of toxicity (death and body weight loss) ([3]; 5 and 10 mg/kg i.p., three weeks) | IC50 (HSP90) [µM] | % Apoptosis (NCI-H460 [2]; 3.2 μM, Blank 5.2 ± 0.9) [%] | % Apoptosis (NCI-H460 [2]; 4.8 μM, Blank 5.2 ± 0.9) [%]
O=c1c2ccccc2oc2c[n+](Cc3ccccc3)ccc12.[Br-] [Compound 5, 2-Benzyl-10-oxo-10H-9-oxa-2-azonia-anthracene bromide] | 4.8 ± 0.1 | 7.2 ± 1.4 | 7.3 ± 0.9 | did not induce apoptosis | considerable inhibition of tumor growth | accentuated this difference to statistically significant values | no evident manifestations of toxicity |  |  | 
O=c1c2ccccc2sc2c[n+](Cc3ccccc3)ccc12.[Br-] [Compound 8, 2-Benzyl-5-oxo-5H-thiochromeno[2,3-c]pyridin-2-ium bromide] |  |  |  | induced apoptosis |  |  |  | 3.7 ± 0.03 | 6.7 ± 1.4 | 12.5 ± 1.7
